The experiment concerns the target T1, Recombinant human TPH1 (MBP tagged) (Homo sapiens, UniProt P17752).
T1 construct: cloning full length human TPH1 cDNA in to a bacterial pMAL-c5E expression vector; made in house; host or cells: E. coli BL21 (DE3)
T1 sequence (P17752 1-444): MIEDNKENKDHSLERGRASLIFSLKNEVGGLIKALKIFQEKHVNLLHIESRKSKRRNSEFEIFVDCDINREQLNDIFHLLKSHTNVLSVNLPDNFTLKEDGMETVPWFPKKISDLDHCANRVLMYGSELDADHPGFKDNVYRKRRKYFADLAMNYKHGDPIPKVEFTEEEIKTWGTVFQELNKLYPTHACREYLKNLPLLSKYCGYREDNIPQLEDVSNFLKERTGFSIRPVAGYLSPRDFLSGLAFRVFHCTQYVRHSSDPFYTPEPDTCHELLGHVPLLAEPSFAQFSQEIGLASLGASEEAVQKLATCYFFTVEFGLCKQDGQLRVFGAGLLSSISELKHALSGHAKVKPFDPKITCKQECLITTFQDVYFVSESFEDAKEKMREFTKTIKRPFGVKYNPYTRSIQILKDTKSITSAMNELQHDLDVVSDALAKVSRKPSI
Briefly: TPH1 in vitro inhibition assay (kinetic fluorescence). The experiment is classed as biochemical. The method in brief: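 Final mix: 15 nM MBP-TPH1, 30 μM Trp, 36 μM 6-methyltetrahydropterin, 25 μM ferrous ammonium sulfate, 50 mM MES pH 7.1, 1% DMSO, room temperature.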

[1] abbreviates: read-out: TPH1 Range (TPH1 inhibition IC50).

Each structure is given as a SMILES string. Like-named read-outs stand apart in the source and are kept apart here. A value given as a limit tells only on which side of the number the result lay.

As usually defined, the IC50 is the concentration at which inhibition is half-maximal. `Nc1nc(O[C@H](c2ccc(-c3ccc4c(c3)CCCO4)cc2)C(F)(F)F)cc(N2CCC3(CC2)CN[C@H](C(=O)O)C3)n1` [Example 55dq, (S)-8-(2-amino-6-((R)-1-(4-(chroman-6-yl)phenyl)-2,2,2-trifluoroethoxy)pyrimidin-4-yl)-2,8-diazaspiro[4.5]decane-3-carboxylic acid]: the IC50 under setting [1] is below 50 nM.
Still for that read-out and setting: under `COc1ccc(-c2ccc([C@@H](Oc3cc(N4CCC5(CC4)CN[C@H](C(=O)O)C5)nc(N)n3)C(F)(F)F)cc2)cc1F` [Example 55e, (S)-8-(2-amino-6-((R)-2,2,2-trifluoro-1-(3′-fluoro-4′-methoxy-[1,1′-biphenyl]-4-yl)ethoxy)pyrimidin-4-yl)-2,8-diazaspiro[4.5]decane-3-carboxylic acid] stands 50 to 300 nM; under `Nc1nc(O[C@H](c2ccc(-c3ccc4cnsc4c3)cc2)C(F)(F)F)cc(N2CCC3(CC2)CN[C@H](C(=O)O)C3)n1` [Example 55f, (S)-8-(2-amino-6-((R)-1-(4-(benzo[d]isothiazol-6-yl)phenyl)-2,2,2-trifluoroethoxy)pyrimidin-4-yl)-2,8-diazaspiro[4.5]decane-3-carboxylic acid], 50 to 300 nM; under `Nc1nc(O[C@H](c2ccc(-c3ccc4cnoc4c3)cc2)C(F)(F)F)cc(N2CCC3(CC2)CN[C@H](C(=O)O)C3)n1` [Example 55g, (S)-8-(2-amino-6-((R)-1-(4-(benzo[d]isoxazol-6-yl)phenyl)-2,2,2-trifluoroethoxy)pyrimidin-4-yl)-2,8-diazaspiro[4.5]decane-3-carboxylic acid], 300 to 3000 nM.
Still for that read-out and setting: under `Nc1nc(O[C@H](c2ccc(-c3ccc4cn[nH]c4c3)cc2)C(F)(F)F)cc(N2CCC3(CC2)CN[C@H](C(=O)O)C3)n1` [Example 55h, (S)-8-(6-((R)-1-(4-(1H-indazol-6-yl)phenyl)-2,2,2-trifluoroethoxy)-2-aminopyrimidin-4-yl)-2,8-diazaspiro[4.5]decane-3-carboxylic acid] stands 50 to 300 nM; under `Cn1ncc2ccc(-c3ccc([C@@H](Oc4cc(N5CCC6(CC5)CN[C@H](C(=O)O)C6)nc(N)n4)C(F)(F)F)cc3)cc21` [Example 55i, (S)-8-(2-amino-6-((R)-2,2,2-trifluoro-1-(4-(1-methyl-1H-indazol-6-yl)phenyl)ethoxy)pyrimidin-4-yl)-2,8-diazaspiro[4.5]decane-3-carboxylic acid], below 50 nM.
Same read-out and setting: then `Nc1nc(O[C@H](c2ccc(-c3ccc4sncc4c3)cc2)C(F)(F)F)cc(N2CCC3(CC2)CN[C@H](C(=O)O)C3)n1` [Example 55j, (S)-8-(2-amino-6-((R)-1-(4-(benzo[d]isothiazol-5-yl)phenyl)-2,2,2-trifluoroethoxy)pyrimidin-4-yl)-2,8-diazaspiro[4.5]decane-3-carboxylic acid], with 50 to 300 nM; and `Nc1nc(O[C@H](c2ccc(-c3ccc4ncnn4c3)cc2)C(F)(F)F)cc(N2CCC3(CC2)CN[C@H](C(=O)O)C3)n1` [Example 55l, (S)-8-(6-((R)-1-(4-([1,2,4]triazolo[1,5-a]pyridin-6-yl)phenyl)-2,2,2-trifluoroethoxy)-2-aminopyrimidin-4-yl)-2,8-diazaspiro[4.5]decane-3-carboxylic acid], with 50 to 300 nM.
Consider `Nc1nc(O[C@H](c2ccc(-c3ccc4ccccc4c3)cc2)C(F)(F)F)cc(N2CCC3(CC2)CN[C@H](C(=O)O)C3)n1` [Example 55m, (S)-8-(2-amino-6-((R)-2,2,2-trifluoro-1-(4-(naphthalen-2-yl)phenyl)ethoxy)pyrimidin-4-yl)-2,8-diazaspiro[4.5]decane-3-carboxylic acid], for which, under setting [1], the IC50 is below 50 nM.
On the same count and under the same terms, under `COc1cc(-c2ccc([C@@H](Oc3cc(N4CCC5(CC4)CN[C@H](C(=O)O)C5)nc(N)n3)C(F)(F)F)cc2)ccc1C` [Example 55n, (S)-8-(2-amino-6-((R)-2,2,2-trifluoro-1-(3′-methoxy-4′-methyl-[1,1′-biphenyl]-4-yl)ethoxy)pyrimidin-4-yl)-2,8-diazaspiro[4.5]decane-3-carboxylic acid] stands 300 to 3000 nM; under `COc1cc(C)cc(-c2ccc([C@@H](Oc3cc(N4CCC5(CC4)CN[C@H](C(=O)O)C5)nc(N)n3)C(F)(F)F)cc2)c1` [Example 55o, (S)-8-(2-amino-6-((R)-2,2,2-trifluoro-1-(3′-methoxy-5′-methyl-[1,1′-biphenyl]-4-yl)ethoxy)pyrimidin-4-yl)-2,8-diazaspiro[4.5]decane-3-carboxylic acid], 50 to 300 nM.
In the case of `COc1ccc(C)c(-c2ccc([C@@H](Oc3cc(N4CCC5(CC4)CN[C@H](C(=O)O)C5)nc(N)n3)C(F)(F)F)cc2)c1` [Example 55p, (S)-8-(2-amino-6-((R)-2,2,2-trifluoro-1-(5′-methoxy-2′-methyl-[1,1′-biphenyl]-4-yl)ethoxy)pyrimidin-4-yl)-2,8-diazaspiro[4.5]decane-3-carboxylic acid], under setting [1], the IC50 was in the range of 50 to 300 nM.
On the same count and under the same terms, under `COc1ccc(-c2ccc([C@@H](Oc3cc(N4CCC5(CC4)CN[C@H](C(=O)O)C5)nc(N)n3)C(F)(F)F)cc2)cc1OC` [Example 55q, (S)-8-(2-amino-6-((R)-1-(3′,4′-dimethoxy-[1,1′-biphenyl]-4-yl)-2,2,2-trifluoroethoxy)pyrimidin-4-yl)-2,8-diazaspiro[4.5]decane-3-carboxylic acid] stands below 50 nM; under `COc1cc(-c2ccc([C@@H](Oc3cc(N4CCC5(CC4)CN[C@H](C(=O)O)C5)nc(N)n3)C(F)(F)F)cc2)ccc1C(=O)N1CCCC1` [Example 55r, (S)-8-(2-amino-6-((R)-2,2,2-trifluoro-1-(3′-methoxy-4′-(pyrrolidine-1-carbonyl)-[1,1′-biphenyl]-4-yl)ethoxy)pyrimidin-4-yl)-2,8-diazaspiro[4.5]decane-3-carboxylic acid], 50 to 300 nM; under `Nc1nc(O[C@H](c2ccc(-c3ccc4c(c3)COC4=O)cc2)C(F)(F)F)cc(N2CCC3(CC2)CN[C@H](C(=O)O)C3)n1` [Example 55s, (S)-8-(2-amino-6-((R)-2,2,2-trifluoro-1-(4-(1-oxo-1,3-dihydroisobenzofuran-5-yl)phenyl)ethoxy)pyrimidin-4-yl)-2,8-diazaspiro[4.5]decane-3-carboxylic acid], below 50 nM.
For `Nc1nc(O[C@H](c2ccc(-c3ccc4[nH]c(=O)ccc4c3)cc2)C(F)(F)F)cc(N2CCC3(CC2)CN[C@H](C(=O)O)C3)n1` [Example 55t, (S)-8-(2-amino-6-((R)-2,2,2-trifluoro-1-(4-(2-oxo-1,2-dihydroquinolin-6-yl)phenyl)ethoxy)pyrimidin-4-yl)-2,8-diazaspiro[4.5]decane-3-carboxylic acid], the IC50 under setting [1] was 50 to 300 nM.
Same read-out and setting: then `Cn1c(=O)ccc2cc(-c3ccc([C@@H](Oc4cc(N5CCC6(CC5)CN[C@H](C(=O)O)C6)nc(N)n4)C(F)(F)F)cc3)ccc21` [Example 55u, (S)-8-(2-amino-6-((R)-2,2,2-trifluoro-1-(4-(1-methyl-2-oxo-1,2-dihydroquinolin-6-yl)phenyl)ethoxy)pyrimidin-4-yl)-2,8-diazaspiro[4.5]decane-3-carboxylic acid], with 50 to 300 nM.
For `Nc1nc(O[C@H](c2ccc(-c3ccc4c(c3)CCC(=O)N4)cc2)C(F)(F)F)cc(N2CCC3(CC2)CN[C@H](C(=O)O)C3)n1` [Example 55v, (S)-8-(2-amino-6-((R)-2,2,2-trifluoro-1-(4-(2-oxo-1,2,3,4-tetrahydroquinolin-6-yl)phenyl)ethoxy)pyrimidin-4-yl)-2,8-diazaspiro[4.5]decane-3-carboxylic acid], where the note is “TPH1 Range (TPH1 inhibition IC50)”, the IC50 is below 50 nM.

The values are drawn from patent publication US11759462B2, “Spirocyclic compounds as tryptophan hydroxylase inhibitors” (priority 2013, dated 2023).
